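Briefly, cells in 96-well plates were exposed to five compound concentrations for 48 h, and endpoints were estimated by linear interpolation. TGI is the concentration that stops growth completely.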 Where only a bound is given, the exact number is not on record here.

Experimental findings from PubChem BioAssay (NCI) are described below.

Test systems include MDA-MB-231 breast; RPMI-8226 leukemia; LOX IMVI melanoma; SK-MEL-5 melanoma; SNB-19 CNS; K-562 leukemia; UO-31 renal; CCRF-CEM leukemia; SN12C renal; HT29 colon; MOLT-4 leukemia; T-47D breast; 786-0 renal; SK-OV-3 ovarian; HCC-2998 colon; OVCAR-8 ovarian; HOP-62 NSCLC.
Holding throughout (test): DTP human tumour cell line panel, 48 h

A word on the TGI: it is the concentration at which net growth stops. For `COc1ccccc1/C(=N\OCCC(=O)O)c1cccs1`, the TGI in the assay with MDA-MB-231 breast, in the assay on RPMI-8226 leukemia, in the assay on LOX IMVI melanoma, with SK-MEL-5 melanoma, with SNB-19 CNS and in the assay on K-562 leukemia was above 100 µM each time. Besides, the TGI in the assay on UO-31 renal, in the assay with CCRF-CEM leukemia, in the assay on SN12C renal, in the assay on HT29 colon, in the assay on MOLT-4 leukemia and in the assay on T-47D breast was above 100 µM each time. Further, the TGI in the assay on 786-0 renal, in the assay with SK-OV-3 ovarian, in the assay on HCC-2998 colon, in the assay with OVCAR-8 ovarian and in the assay on HOP-62 NSCLC was above 100 µM each time.
Turning to `CCCC(=O)n1[nH]c(=O)n(-c2ccc(Cl)cc2)c1=O`, the TGI in the assay on MDA-MB-231 breast, with RPMI-8226 leukemia, in the assay on LOX IMVI melanoma, in the assay with SK-MEL-5 melanoma, with SNB-19 CNS and in the assay on K-562 leukemia was above 100 µM each time. Besides, the TGI in the assay on UO-31 renal, in the assay on CCRF-CEM leukemia, in the assay with SN12C renal, with HT29 colon, in the assay on MOLT-4 leukemia and in the assay with T-47D breast was above 100 µM each time. Besides, the TGI in the assay on 786-0 renal, in the assay with SK-OV-3 ovarian, in the assay on HCC-2998 colon, with OVCAR-8 ovarian and with HOP-62 NSCLC was above 100 µM each time.
As to `OC1(C(F)(F)F)OCCN=C1C(F)(F)F` (stereo unspecified), the TGI in the assay with MDA-MB-231 breast, with RPMI-8226 leukemia, in the assay on LOX IMVI melanoma, in the assay on SK-MEL-5 melanoma, in the assay with SNB-19 CNS and with K-562 leukemia was above 100 µM throughout. The TGI in the assay on UO-31 renal, in the assay with CCRF-CEM leukemia, in the assay with SN12C renal, in the assay with HT29 colon, in the assay on MOLT-4 leukemia and in the assay with T-47D breast was above 100 µM each time. Moreover, the TGI in the assay with 786-0 renal, in the assay with SK-OV-3 ovarian, with HCC-2998 colon, in the assay with OVCAR-8 ovarian and in the assay on HOP-62 NSCLC was above 100 µM in each case.
For the molecule `COCC1OC(Sc2ccccc2)C(O)C(OC)C1OC` (stereo unspecified), the TGI with MDA-MB-231 breast, in the assay with LOX IMVI melanoma, in the assay with SK-MEL-5 melanoma, with SNB-19 CNS, in the assay on K-562 leukemia and in the assay on UO-31 renal was above 100 µM throughout. Also, the TGI with CCRF-CEM leukemia, with SN12C renal, in the assay with HT29 colon, in the assay on MOLT-4 leukemia, in the assay on T-47D breast and in the assay on 786-0 renal was above 100 µM throughout. Also, the total growth inhibition concentration (TGI) in the assay with SK-OV-3 ovarian, with HCC-2998 colon, with OVCAR-8 ovarian and in the assay on HOP-62 NSCLC was above 100 µM throughout.
Consider `O=c1cc(N2CCOCC2)[nH]c(=O)n1-c1ccc(F)cc1`, for which the TGI in the assay on MDA-MB-231 breast, in the assay with RPMI-8226 leukemia, with LOX IMVI melanoma, in the assay with SNB-19 CNS, in the assay with K-562 leukemia and with CCRF-CEM leukemia was above 100 µM each time. Also, the TGI in the assay on SN12C renal, with HT29 colon, in the assay on MOLT-4 leukemia, in the assay on T-47D breast, in the assay on 786-0 renal and in the assay with SK-OV-3 ovarian was above 100 µM each time. The TGI in the assay with HCC-2998 colon, in the assay on OVCAR-8 ovarian and in the assay with HOP-62 NSCLC was above 100 µM in each case.
For `COC(=O)CCC1=CCC2(SC)C(=O)Nc3cccc1c32` (stereo unspecified), the TGI with MDA-MB-231 breast, with RPMI-8226 leukemia, in the assay on LOX IMVI melanoma, in the assay with SK-MEL-5 melanoma, in the assay with SNB-19 CNS and with UO-31 renal was above 100 µM each time. Also, the TGI in the assay with CCRF-CEM leukemia, in the assay on SN12C renal, with HT29 colon, with MOLT-4 leukemia, with T-47D breast and in the assay on 786-0 renal was above 100 µM each time. Further, the concentration for total growth inhibition (TGI) in the assay with SK-OV-3 ovarian, with HCC-2998 colon, in the assay with OVCAR-8 ovarian and in the assay on HOP-62 NSCLC was above 100 µM throughout.
In the case of `O=C1C2CC=CCC2C(=O)N1n1c(Cc2ccc(Cl)cc2)n[nH]c1=O` (stereo unspecified), the TGI in the assay on MDA-MB-231 breast, in the assay with RPMI-8226 leukemia, in the assay with LOX IMVI melanoma, in the assay on SK-MEL-5 melanoma, in the assay with K-562 leukemia and in the assay with UO-31 renal was above 100 µM throughout. The TGI in the assay on CCRF-CEM leukemia, with SN12C renal, in the assay with HT29 colon, in the assay with MOLT-4 leukemia, in the assay with T-47D breast and in the assay with 786-0 renal was above 100 µM in each case. Besides, the TGI in the assay on SK-OV-3 ovarian, with HCC-2998 colon, with OVCAR-8 ovarian and in the assay with HOP-62 NSCLC was above 100 µM each time.
Consider `CCCC[C@@H]1CCN2C[C@@H](O)[C@@H](O)[C@@H]2[C@H]1O`, for which the TGI in the assay on MDA-MB-231 breast, in the assay on RPMI-8226 leukemia, in the assay on LOX IMVI melanoma, with SK-MEL-5 melanoma, in the assay with SNB-19 CNS and in the assay with K-562 leukemia was above 100 µM each time. Besides, the TGI with UO-31 renal, in the assay on CCRF-CEM leukemia, in the assay on SN12C renal, with HT29 colon, with MOLT-4 leukemia and in the assay with T-47D breast was above 100 µM in each case. Besides, the TGI in the assay with 786-0 renal, with SK-OV-3 ovarian, in the assay on HCC-2998 colon and with OVCAR-8 ovarian was above 100 µM each time.
As to `N#Cc1nc2ccccc2nc1N1CCN(c2ccc([N+](=O)[O-])cc2)CC1`, the TGI in the assay with MDA-MB-231 breast, with RPMI-8226 leukemia, in the assay with LOX IMVI melanoma, in the assay on SK-MEL-5 melanoma, in the assay with SNB-19 CNS and in the assay on UO-31 renal was above 100 µM each time. The TGI in the assay with CCRF-CEM leukemia was above 100 µM; in the assay with SN12C renal, above 100 µM; in the assay with HT29 colon it was above 100 µM; with MOLT-4 leukemia it was 1.05 µM; in the assay with T-47D breast, above 100 µM; with 786-0 renal, above 100 µM. Further, the TGI in the assay with SK-OV-3 ovarian, in the assay on HCC-2998 colon, with OVCAR-8 ovarian and with HOP-62 NSCLC was above 100 µM each time.
